These results are taken from ChEMBL document CHEMBL1133373, “Chemical and enzymatic modifications of integric acid and HIV-1 integrase inhibitory activity” (Bioorg Med Chem Lett, 2000).

The structures appear in SMILES notation. Active and inactive are the calls of the source. The rule behind the calls is not given here.

The target in test [1] is Human immunodeficiency virus type 1 integrase (Human immunodeficiency virus 1, UniProt Q7ZJM1). Briefly: Inhibitory activity against HIV-1 integrase.
The target of test [2] is Human immunodeficiency virus type 1 integrase (Human immunodeficiency virus 1) (UniProt Q7ZJM1). Briefly: Activity against HIV-1 integrase in range 5-20 uM compared to integric acid.
Human immunodeficiency virus type 1 integrase (Human immunodeficiency virus 1), sequence (Q7ZJM1 as listed by the source): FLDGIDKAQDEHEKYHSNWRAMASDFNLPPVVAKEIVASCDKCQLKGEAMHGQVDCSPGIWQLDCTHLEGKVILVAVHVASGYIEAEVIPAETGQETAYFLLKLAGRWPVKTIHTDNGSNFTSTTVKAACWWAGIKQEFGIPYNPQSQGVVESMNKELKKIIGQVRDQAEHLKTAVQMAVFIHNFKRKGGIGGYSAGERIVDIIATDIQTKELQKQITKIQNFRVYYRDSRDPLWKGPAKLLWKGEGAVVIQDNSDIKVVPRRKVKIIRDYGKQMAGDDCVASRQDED
The target is the same in test [3]. Briefly: Compound was tested for strand transfer activity against HIV-1 integrase at 50 uM; weak inhibition.

Broadly, the IC50 is the midpoint of a concentration-inhibition curve.

Human immunodeficiency virus type 1 integrase, sequence (Q7ZJM1 whole entry): as the sequence (Q7ZJM1 as listed by the source) above

In the case of `CC1=C2C[C@@]3(C)C(=CCC[C@@H]3C(=O)O)C=C2OC1=O`, the IC50 in test [1] is above 100 µM. Compound `C=C(CO)[C@@H]1C[C@@]2(C)C(=C[C@H]1O)[C@H](OC(=O)/C(C)=C/C(C)CCCC)CC[C@@H]2C(=O)O` (stereo not given in full) registered a half-maximal inhibitory concentration (IC50) in test [1] of 73 µM. Take `C=C(C=O)[C@@H]1C[C@@]2(C)C(=CC1=O)[C@H](OC(=O)/C(C)=C/C(C)CCCC)CC[C@@H]2C(=O)N[C@@H](CC(C)C)C(=O)OC` (stereo not given in full): the result in test [2] was Active. Also, half-maximal inhibition in test [1] (IC50) required 3 µM. Taken in the same sequence, the figures for `C=C(C=O)[C@@H]1C[C@@]2(C)C(=CC1=O)[C@H](OC(=O)/C(C)=C/C(C)CCCC)CC[C@@H]2C(=O)NCCNC(=O)[C@H]1CC[C@@H](OC(=O)/C(C)=C/C(C)CCCC)C2=CC(=O)[C@H](C(=C)C=O)C[C@@]21C` (stereo not given in full) were “Active” and 10 µM. Regarding `CCCCC(C)/C=C(\C)C(=O)O[C@@H]1CC[C@H](C(=O)O)[C@@]2(C)C[C@@H](C(C)C(O)O)C(=O)C=C12` (stereo not given in full), in test [1], it took 40 µM to reach half-maximal inhibition (IC50). This lies in the double-digit micromolar range. `C=C(C=O)[C@@H]1C[C@@]2(C)C(=CC1=O)[C@H](OC(=O)/C(C)=C/C(C)CCCC)CC[C@@H]2C(=O)O/C(=N\C1CCCCC1)NC1CCCCC1` (stereo not given in full) had an IC50 in test [1] of 88 µM. Turning to `CCCCC(C)/C=C(\C)C(=O)O[C@@H]1CC[C@H](C(=O)O)[C@@]2(C)CC3C(C)C(O)OC3(O)C=C12` (stereo not given in full), the midpoint of inhibition in test [1], the IC50, lay at 40 µM.

Consider `CCCCC(C)/C=C(\C)C(=O)O[C@@H]1CC[C@H](C(=O)O)[C@@]2(C)C[C@H]3[C@H](C)CO[C@]3(O)C[C@H]12` (stereo not given in full), for which, in test [1], the concentration for half-maximal inhibition (IC50) turned out to be 100 µM. Consider `CCCCC(C)/C=C(\C)C(=O)O[C@@H]1CC[C@H](C(=O)O)[C@@]2(C)C[C@H]3[C@@H](C)CO[C@]3(O)C[C@H]12` (stereo not given in full), for which the IC50 in test [1] came to 45 µM. Regarding `C=C(C=O)[C@@H]1C[C@@]2(C)C(=CC1=O)[C@H](OC(=O)/C(C)=C/C(C)CCCC)CC[C@@H]2C(=O)ON[C@H](C(=O)OC)c1ccccc1` (stereo not given in full), in test [2], the result was Active. Further, the 50% inhibitory concentration (IC50) in test [1] is 5 µM. Take `CCCCC(C)/C=C(\C)C(=O)O[C@@H]1CC[C@H](C(=O)O)[C@@]2(C)CC([C@@H](C)C=O)C(=O)C=C12` (stereo not given in full): the outcome in test [2] was Active. In test [3], the Activity entry was “weak inhibition”. In test [1], this compound registered a half-maximal inhibitory concentration (IC50) of 11 µM. With `C=CC(=C)[C@@H]1C[C@@]2(C)C(=CC1=O)[C@H](OC(=O)/C(C)=C/C(C)CCCC)CC[C@@H]2C(=O)O` (stereo not given in full), 30 µM corresponded to half-maximal inhibition in test [1] (IC50). In other words, the double-digit micromolar range. Consider `CCCCC(C)/C=C(\C)C(=O)O[C@@H]1CC[C@H](C(=O)O)[C@@]2(C)C[C@@H]([C@H](C)C=O)C(=O)C=C12` (stereo not given in full), for which, in test [2], the outcome was Active. Moreover, the Activity result in test [3] is “weak inhibition”. Moreover, in test [1], the 50% inhibitory concentration (IC50) worked out at 11 µM. In the case of `C=C(C=O)[C@@H]1C[C@@]2(C)C(=CC1=O)[C@H](OC(=O)/C(C)=C/C(C)CCCC)CC[C@@H]2C(=O)ON[C@@H](C(=O)OC)c1ccccc1` (stereo not given in full), in test [2], the result was Active. Further, in test [1], the IC50 turned out to be 5 µM. Regarding `C=C(C=O)[C@@H]1C[C@@]2(C)C(=CC1=O)[C@H](OC(=O)/C(C)=C/C(C)CCCC)CC[C@@H]2C(=O)O` (stereo not given in full), the outcome in test [2] was Active. The compound also came in with a concentration for half-maximal inhibition (IC50) in test [1] of 3 µM.

`C=C/C(C)=C1\C[C@@]2(C)C(=CC1=O)[C@H](OC(=O)/C(C)=C/C(C)CCCC)CC[C@@H]2C(=O)O` (stereo not given in full) displayed an IC50 in test [1] of 75 µM.

For `CCCCC(C)/C=C(\C)C(=O)O` (stereo not given), in test [2], the outcome was Active. In addition, the IC50 in test [1] was determined as 12 µM. With `C=C(C=O)[C@@H]1C[C@@]2(C)C(=CC1=O)[C@H](OC(=O)/C(C)=C/C(C)CCCC)CC[C@@H]2C(=O)N1CCN(C(=O)[C@H]2CC[C@@H](OC(=O)/C(C)=C/C(C)CCCC)C3=CC(=O)[C@H](C(=C)C=O)C[C@@]32C)CC1` (stereo not given in full), in test [2], the result was Active. For the same compound, in test [1], the half-inhibitory concentration (IC50) is 24 µM. `C=C(C=O)[C@@H]1C[C@@]2(C)C(=CC1=O)[C@H](OC(=O)/C(C)=C/C(C)CCCC)CC[C@@H]2C(=O)OP(=O)(OCC)OCC` (stereo not given in full) yielded an IC50 in test [1] of 81 µM.
